Assay results taken from patent publication US20250332173A1, “COMPOUNDS AND METHODS FOR MODULATING NUCLEIC ACID SPLICING” (REMIX THERAPEUTICS INC., priority 2021, published 2025).
Where two headings read alike, the source gives them in different places.

What was measured:
[1] = system: MYB mRNA; assay: RT-qPCR splicing assay, MYB canonical junction (CJ) and alternative junction (AJ) mRNA; assay type: cell-based, human; settings: Homo sapiens; for AC50: increase in MYB alternative junction (AJ) mRNA, read-out: MYB AJ AC50
Procedure, shortened: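 A673 or K562 cells were treated for 24 h at 37 °C with an 11-point 3-fold compound dilution series (top final concentration 10 uM, DMSO ≤0.25%). After lysis, one-step TaqMan RT-qPCR quantified junction transcripts, normalized to PPIA for A673 or to GAPDH/GUSB for K562.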

[2] = system: Target C; assay: RT-qPCR splicing assay panel, Target C canonical junction (CJ) mRNA; assay type: cell-based, human; settings: Homo sapiens; Table 5 panel; canonical junction qPCR; compound concentration having 50% response in CJ decrease; read-out: Target C IC50 (decrease in CJ mRNA levels)
Procedure, shortened: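 A673 or K562 cells were treated for 24 h at 37 °C with compound in 11-point 3-fold dilution (top 10 uM final, DMSO ≤0.25%). Lysates then went to one-step RT-qPCR measuring canonical-junction mRNA, normalized to GAPDH, GUSB or PPIA.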

[3] = Table 5 panel, canonical junction qPCR, compound concentration having 50% response in CJ decrease, read-out: MYB IC50 (decrease in CJ mRNA levels)
[4] = decrease in MYB canonical junction (CJ) mRNA, RT-qPCR, read-out: MYB CJ IC50

Row | SMILES | IC50 [1, 3] | IC50 [1, 4] | IC50 [2] | AC50 ([1]; RT-qPCR)
1 | Cc1cn2cc(-c3ccc4c(=O)n(C5CCN(C)CC5)cnc4c3)ncc2n1 [Compound 308] | 1000 to 10000 nM | 1000 to 10000 nM | 1000 to 10000 nM | 1000 to 10000 nM
2 | Cc1cn2nc(-c3ccc4c(=O)n(C5CCN(C)CC5)ccc4c3)cc(C)c2n1 [Compound 310] | < 100 nM | < 100 nM | 100 to 1000 nM | < 100 nM
3 | Cn1cc2cc(-c3cc(F)c4c(=O)n(C5CCNCC5)cnc4c3)cc(F)c2n1 [Compound 314] | 1000 to 10000 nM | 1000 to 10000 nM | > 10000 nM | 1000 to 10000 nM
4 | Cn1cc2cc(-c3cc(F)c4c(=O)n(C5CCNCC5)cnc4c3)c(F)cc2n1 [Compound 315] | 100 to 1000 nM | 100 to 1000 nM | 1000 to 10000 nM | 100 to 1000 nM
5 | Cn1cc2cc(-c3cc(F)c4c(=O)n(C5CCNCC5)cnc4c3)cc(C#N)c2n1 [Compound 316] | < 100 nM | < 100 nM | 100 to 1000 nM | < 100 nM
6 | Cc1cn2cc(-c3cc(F)c4c(=O)n(C5CCNCC5)cnc4c3)cc(C)c2n1 [Compound 317] | < 100 nM | 100 to 1000 nM | 100 to 1000 nM | < 100 nM
7 | Cc1cn2cc(-c3cc(F)c4c(=O)n(C5CCNCC5)cnc4c3)nc2c(C)n1 [Compound 319] | 100 to 1000 nM | 1000 to 10000 nM | 1000 to 10000 nM | 100 to 1000 nM
8 | COc1cc(-c2cc(F)c3c(=O)n(C4CCNCC4)cnc3c2)cnn1 [Compound 320] | > 10000 nM | > 10000 nM | > 10000 nM | > 10000 nM
9 | Cc1cn2cc(-c3cc(F)c4c(=O)n([C@H]5CCNC[C@H]5F)cnc4c3)cc(F)c2n1 [Compound 338] | < 100 nM | < 100 nM | 1000 to 10000 nM | < 100 nM
10 | Cc1cn2cc(-c3cc(F)c4c(=O)n(C5=CCNCC5)cnc4c3)cc(F)c2n1 [Compound 342] | < 100 nM | < 100 nM | 100 to 1000 nM | < 100 nM
11 | Cc1cn2cc(-c3cc(F)c4c(=O)n([C@H]5CNCC[C@@H]5O)cnc4c3)cc(F)c2n1 [Compound 348, 5-fluoro-7-{8-fluoro-2-methylimidazo[1,2-a]pyridin-6-yl}-3-[(3S,4S)-4-hydroxypiperidin-3-yl]quinazolin-4-one] | > 10000 nM | > 10000 nM | > 10000 nM | > 10000 nM
12 | Cc1cn2nc(-c3cc(F)c4c(=O)n(C5CCNC6(CC6)C5)cnc4c3)cc(C)c2n1 (stereo not drawn) [Compound 351] | < 100 nM | < 100 nM | < 100 nM | < 100 nM
13 | Cc1cn2nc(-c3cc(C)c4c(=O)n(C5CCNCC5)cnc4c3)cc(C)c2n1 [Compound 355] | < 100 nM | < 100 nM | 100 to 1000 nM | < 100 nM

Second part, led by results:

Row | IC50 [1, 3] | IC50 [1, 4] | IC50 [2] | SMILES | AC50 ([1]; RT-qPCR)
14 | 100 to 1000 nM | 100 to 1000 nM | 1000 to 10000 nM | CC[C@@H]1C[C@H](n2ncc3cc(-c4cc(C)c5nc(C)cn5n4)ccc3c2=O)CCN1 [Compound 304] | 100 to 1000 nM
15 | 1000 to 10000 nM | > 10000 nM | 1000 to 10000 nM | Cc1cn2cc(-c3ccc4c(=O)n(C5CCNCC5)cnc4c3)cc(C(F)(F)F)c2n1 [Compound 306] | 1000 to 10000 nM
16 | 1000 to 10000 nM | 1000 to 10000 nM | 1000 to 10000 nM | Cc1cc(-c2cnc3c(=O)n(C4CCNCC4)cnc3c2)cc2cn(C)nc12 [Compound 311] | 1000 to 10000 nM
17 | < 100 nM | < 100 nM | < 100 nM | Cc1cn2nc(-c3cc(F)c4c(=O)n(C5CCNC6(CC6)C5)ncc4c3)cc(C)c2n1 (stereo not drawn) [Compound 312] | < 100 nM
18 | < 100 nM | < 100 nM | 100 to 1000 nM | Cc1cn2nc(-c3cc(F)c4c(=O)n(C5CCNCC5)cnc4c3)cc2c(C)n1 [Compound 318] | < 100 nM
19 | < 100 nM | < 100 nM | < 100 nM | Cc1cn2nc(-c3cc(F)c4c(=O)n(C5CCNCC5)ccc4c3)cc(C)c2n1 [Compound 322] | < 100 nM
20 | 1000 to 10000 nM | 1000 to 10000 nM | > 10000 nM | Cc1cn2cc(-c3cc(F)c4c(=O)n(C5CCNCC5(F)F)cnc4c3)cc(F)c2n1 (stereo not drawn) [Compound 339] | 1000 to 10000 nM
21 | < 100 nM | < 100 nM | 100 to 1000 nM | Cc1cn2cc(-c3cc(F)c4c(=O)n(N5CCNCC5)cnc4c3)cc(F)c2n1 [Compound 340, 5-fluoro-7-{8-fluoro-2-methylimidazo[1,2-a]pyridin-6-yl}-3-(piperazin-1-yl)quinazolin-4-one] | < 100 nM
22 | < 100 nM | < 100 nM | < 100 nM | Cc1cn2nc(-c3cc(N(C)C)c4c(=O)n(C5CCNC6(CC6)C5)cnc4c3)cc(C)c2n1 (stereo not drawn) [Compound 345] | < 100 nM
23 | < 100 nM | < 100 nM | 100 to 1000 nM | Cc1cn2cc(-c3cc(F)c4c(=O)n([C@H]5CCN[C@H](C)C5)cnc4c3)cc(F)c2n1 [Compound 346, trans-5-fluoro-7-(8-fluoro-2-methylimidazo[1,2-a]pyridin-6-yl)-3-(2-methylpiperidin-4-yl)quina-zolin-4(3H)-one] | < 100 nM
24 | 100 to 1000 nM | 1000 to 10000 nM | 1000 to 10000 nM | Cc1cn2cc(-c3cc(F)c4c(=O)n([C@H]5CCNC[C@@H]5O)cnc4c3)cc(F)c2n1 [Compound 347, 5-fluoro-7-{8-fluoro-2-methylimidazo[1,2-a]pyridin-6-yl}-3-[(3S,4S)-3-hydroxypiperidin-4-yl]quinazolin-4-one] | 1000 to 10000 nM
25 | 100 to 1000 nM | 100 to 1000 nM | 1000 to 10000 nM | Cc1cn2nc(-c3ccc4c(=O)n([C@H]5CCNC6(CC6)C5)cnc4c3)cc(C)c2n1 [Compound 349, 3-[(7S)-4-azaspiro[2.5]octan-7-yl]-7-{2,8-dimethylimidazo[1,2-b]pyridazin-6-yl}quinazolin-4-one] | 100 to 1000 nM
26 | < 100 nM | < 100 nM | 100 to 1000 nM | Cc1cn2nc(-c3ccc4c(=O)n([C@@H]5CCNC6(CC6)C5)cnc4c3)cc(C)c2n1 [Compound 350, 3-[(7R)-4-azaspiro[2.5]octan-7-yl]-7-{2,8-dimethylimidazo[1,2-b]pyridazin-6-yl}quinazolin-4-one] | < 100 nM
27 | > 10000 nM | > 10000 nM | > 10000 nM | Cc1cn2cc(-c3cc(F)c4c(=O)n(C5CNCCC5=O)cnc4c3)cc(F)c2n1 (stereo not drawn) [Compound 352, 5-fluoro-7-{8-fluoro-2-methylimidazo[1,2-a]pyridin-6-yl}-3-(4-oxopiperidin-3-yl)quinazolin-4-one] | > 10000 nM
28 | 100 to 1000 nM | 100 to 1000 nM | 1000 to 10000 nM | Cc1cn2cc(-c3cc(F)c4c(=O)n(C5CCCNCC5)cnc4c3)cc(F)c2n1 (stereo not drawn) [Compound 353, 3-(azepan-4-yl)-5-fluoro-7-{8-fluoro-2-methylimidazo[1,2-a]pyridin-6-yl}quinazolin-4-one] | 100 to 1000 nM
29 | 1000 to 10000 nM | 1000 to 10000 nM | 1000 to 10000 nM | Cc1ncc(-c2ccc3c(=O)n(C4CCNCC4)cnc3c2)cn1 [Compound 354, 7-(2-methylpyrimidin-5-yl)-3-(piperidin-4-yl)quinazolin-4(3H)-one] | 1000 to 10000 nM
30 | 100 to 1000 nM | < 100 nM | 100 to 1000 nM | Cc1cn2nc(-c3cc(F)c4c(=O)n([C@@H]5CCNC6(CC6)C5)cnc4c3)cc(C)c2n1 [Compound 356] | 100 to 1000 nM
